Values belong to the molecule of their own block, whether it stands above or below them.
Legend:
[1] = molecular target: Non-receptor tyrosine-protein kinase TNK1 (Homo sapiens) (UniProt Q13470); assay: Inhibition of TNK1 (unknown origin) at 0.5 uM relative to control
[2] = molecular target: Ephrin type-A receptor 2 (Homo sapiens) (UniProt P29317); assay: Inhibition of EPHA2 (unknown origin) at 0.5 uM relative to control
[3] = molecular target: Tyrosine-protein kinase JAK1 (Homo sapiens) (UniProt P23458); assay: Inhibition of JAK1 (unknown origin) at 0.5 uM relative to control
Tyrosine-protein kinase JAK1 (Homo sapiens), sequence (P23458 whole entry): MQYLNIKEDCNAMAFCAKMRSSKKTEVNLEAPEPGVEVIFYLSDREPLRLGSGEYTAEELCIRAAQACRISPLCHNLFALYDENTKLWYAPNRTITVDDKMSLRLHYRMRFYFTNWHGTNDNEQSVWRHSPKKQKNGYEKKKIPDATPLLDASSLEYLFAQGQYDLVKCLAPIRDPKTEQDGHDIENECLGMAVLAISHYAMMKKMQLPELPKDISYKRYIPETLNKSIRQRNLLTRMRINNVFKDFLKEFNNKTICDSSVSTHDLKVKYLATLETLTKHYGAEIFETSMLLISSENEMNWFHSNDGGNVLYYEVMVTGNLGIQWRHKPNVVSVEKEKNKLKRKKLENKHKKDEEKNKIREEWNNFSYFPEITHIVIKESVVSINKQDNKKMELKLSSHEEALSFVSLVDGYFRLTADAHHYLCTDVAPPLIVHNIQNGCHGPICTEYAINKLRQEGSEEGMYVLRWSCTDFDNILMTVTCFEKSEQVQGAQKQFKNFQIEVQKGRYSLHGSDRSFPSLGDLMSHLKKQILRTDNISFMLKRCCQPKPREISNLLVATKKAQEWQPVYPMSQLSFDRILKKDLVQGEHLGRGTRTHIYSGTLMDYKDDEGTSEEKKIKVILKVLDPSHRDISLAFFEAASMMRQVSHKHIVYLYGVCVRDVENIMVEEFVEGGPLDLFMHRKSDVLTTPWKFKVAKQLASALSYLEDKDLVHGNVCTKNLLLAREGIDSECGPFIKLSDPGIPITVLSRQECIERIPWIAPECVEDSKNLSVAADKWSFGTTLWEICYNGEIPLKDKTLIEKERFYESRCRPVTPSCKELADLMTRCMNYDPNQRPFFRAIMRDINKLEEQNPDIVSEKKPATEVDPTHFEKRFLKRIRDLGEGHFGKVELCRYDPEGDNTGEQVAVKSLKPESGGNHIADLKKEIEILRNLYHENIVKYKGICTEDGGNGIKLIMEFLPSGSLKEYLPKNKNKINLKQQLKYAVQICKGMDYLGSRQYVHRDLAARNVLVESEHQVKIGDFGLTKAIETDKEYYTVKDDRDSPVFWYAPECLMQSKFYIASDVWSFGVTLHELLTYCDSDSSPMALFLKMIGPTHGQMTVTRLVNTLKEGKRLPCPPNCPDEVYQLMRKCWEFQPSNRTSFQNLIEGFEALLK

[4] = molecular target: Dual specificity mitogen-activated protein kinase kinase 4 (Homo sapiens) (UniProt P45985); assay: Inhibition of MAP2K4 (unknown origin) at 0.5 uM relative to control
Dual specificity mitogen-activated protein kinase kinase 4 (Homo sapiens), sequence (P45985 whole entry): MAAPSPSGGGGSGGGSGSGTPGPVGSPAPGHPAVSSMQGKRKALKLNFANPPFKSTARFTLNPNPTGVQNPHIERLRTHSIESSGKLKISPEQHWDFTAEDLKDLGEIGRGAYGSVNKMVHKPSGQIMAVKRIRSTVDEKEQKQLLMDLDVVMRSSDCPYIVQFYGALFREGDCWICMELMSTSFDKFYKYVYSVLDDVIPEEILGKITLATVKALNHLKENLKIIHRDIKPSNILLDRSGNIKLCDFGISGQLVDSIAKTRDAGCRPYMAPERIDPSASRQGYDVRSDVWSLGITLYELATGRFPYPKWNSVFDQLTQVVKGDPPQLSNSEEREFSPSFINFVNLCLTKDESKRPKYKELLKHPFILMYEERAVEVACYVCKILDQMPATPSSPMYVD

[5] = molecular target: Tyrosine-protein kinase JAK2 (Homo sapiens) (UniProt O60674); assay: Inhibition of JAK2 (unknown origin) at 0.5 uM relative to control
Tyrosine-protein kinase JAK2 (Homo sapiens), sequence (O60674 whole entry): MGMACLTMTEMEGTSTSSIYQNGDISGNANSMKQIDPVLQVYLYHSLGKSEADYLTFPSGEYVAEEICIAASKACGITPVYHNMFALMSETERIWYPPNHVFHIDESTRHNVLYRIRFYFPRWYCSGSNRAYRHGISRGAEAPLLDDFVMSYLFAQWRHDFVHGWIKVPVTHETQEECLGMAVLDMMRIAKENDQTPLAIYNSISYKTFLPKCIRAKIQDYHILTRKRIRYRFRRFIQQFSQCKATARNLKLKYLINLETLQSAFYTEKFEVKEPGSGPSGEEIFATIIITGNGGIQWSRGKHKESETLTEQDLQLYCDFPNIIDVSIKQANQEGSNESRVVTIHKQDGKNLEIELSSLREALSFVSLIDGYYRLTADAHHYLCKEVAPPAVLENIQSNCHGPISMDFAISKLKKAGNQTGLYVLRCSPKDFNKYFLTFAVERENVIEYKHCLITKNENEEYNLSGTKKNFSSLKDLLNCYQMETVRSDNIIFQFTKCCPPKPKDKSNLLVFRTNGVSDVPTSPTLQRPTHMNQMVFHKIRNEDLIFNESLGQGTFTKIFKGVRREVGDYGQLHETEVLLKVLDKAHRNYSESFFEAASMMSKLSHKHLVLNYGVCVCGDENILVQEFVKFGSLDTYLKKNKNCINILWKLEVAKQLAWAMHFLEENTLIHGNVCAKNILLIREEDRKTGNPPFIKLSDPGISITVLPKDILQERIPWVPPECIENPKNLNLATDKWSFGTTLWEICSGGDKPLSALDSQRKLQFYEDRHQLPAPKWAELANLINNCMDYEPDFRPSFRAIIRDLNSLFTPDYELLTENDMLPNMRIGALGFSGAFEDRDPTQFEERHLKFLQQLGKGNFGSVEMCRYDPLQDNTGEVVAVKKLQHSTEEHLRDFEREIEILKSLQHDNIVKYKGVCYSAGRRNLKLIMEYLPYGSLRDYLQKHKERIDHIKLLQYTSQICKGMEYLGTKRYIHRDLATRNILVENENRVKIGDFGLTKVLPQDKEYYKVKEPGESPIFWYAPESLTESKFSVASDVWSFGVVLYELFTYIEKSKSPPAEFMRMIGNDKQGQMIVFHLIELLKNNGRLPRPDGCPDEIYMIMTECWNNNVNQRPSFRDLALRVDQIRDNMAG

[6] = molecular target: Mitogen-activated protein kinase kinase kinase 9 (Homo sapiens) (UniProt P80192); assay: Inhibition of MLK1 (unknown origin) at 0.5 uM relative to control
[7] = molecular target: MAP kinase-interacting serine/threonine-protein kinase 1 (Homo sapiens) (UniProt Q9BUB5); assay: Inhibition of MNK1 (unknown origin) at 0.5 uM relative to control
MAP kinase-interacting serine/threonine-protein kinase 1 (Homo sapiens), sequence (Q9BUB5 whole entry, looked up): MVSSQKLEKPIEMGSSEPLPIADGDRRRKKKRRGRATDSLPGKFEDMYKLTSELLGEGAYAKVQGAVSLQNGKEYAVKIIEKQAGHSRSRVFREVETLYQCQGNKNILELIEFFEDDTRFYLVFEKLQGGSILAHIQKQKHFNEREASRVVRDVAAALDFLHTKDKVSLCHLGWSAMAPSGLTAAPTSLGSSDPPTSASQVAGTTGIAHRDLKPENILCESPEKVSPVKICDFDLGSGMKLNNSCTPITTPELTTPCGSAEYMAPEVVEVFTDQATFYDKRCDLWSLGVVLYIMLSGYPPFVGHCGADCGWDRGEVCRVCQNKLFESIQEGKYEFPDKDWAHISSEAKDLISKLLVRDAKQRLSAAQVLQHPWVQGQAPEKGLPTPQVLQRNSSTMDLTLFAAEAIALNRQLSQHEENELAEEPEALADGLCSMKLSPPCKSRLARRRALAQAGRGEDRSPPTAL

[8] = molecular target: Proto-oncogene tyrosine-protein kinase Src (Homo sapiens) (UniProt P12931); assay: Inhibition of SRC (unknown origin) at 0.5 uM relative to control
[9] = molecular target: Serine/threonine-protein kinase TAO2 (Homo sapiens) (UniProt Q9UL54); assay: Inhibition of TAOK2 (unknown origin) at 0.5 uM relative to control
[10] = molecular target: Ephrin type-B receptor 3 (Homo sapiens) (UniProt P54753); assay: Inhibition of EPHB3 (unknown origin) at 0.5 uM relative to control
[11] = molecular target: Vascular endothelial growth factor receptor 3 (Homo sapiens) (UniProt P35916); assay: Inhibition of FLT4 (unknown origin) at 0.5 uM relative to control
[12] = molecular target: Platelet-derived growth factor receptor alpha (Homo sapiens) (UniProt P16234); assay: Inhibition of PDGFR-alpha (unknown origin) at 0.5 uM relative to control
[13] = molecular target: Inhibitor of nuclear factor kappa-B kinase subunit epsilon (Homo sapiens) (UniProt Q14164); assay: Inhibition of IKK-epsilon (unknown origin) at 0.5 uM relative to control
[14] = molecular target: Eukaryotic translation initiation factor 2-alpha kinase 3 (Homo sapiens) (UniProt Q9NZJ5); assay: Inhibition of PERK (unknown origin) at 0.5 uM relative to control
Eukaryotic translation initiation factor 2-alpha kinase 3 (Homo sapiens), sequence (Q9NZJ5 whole entry): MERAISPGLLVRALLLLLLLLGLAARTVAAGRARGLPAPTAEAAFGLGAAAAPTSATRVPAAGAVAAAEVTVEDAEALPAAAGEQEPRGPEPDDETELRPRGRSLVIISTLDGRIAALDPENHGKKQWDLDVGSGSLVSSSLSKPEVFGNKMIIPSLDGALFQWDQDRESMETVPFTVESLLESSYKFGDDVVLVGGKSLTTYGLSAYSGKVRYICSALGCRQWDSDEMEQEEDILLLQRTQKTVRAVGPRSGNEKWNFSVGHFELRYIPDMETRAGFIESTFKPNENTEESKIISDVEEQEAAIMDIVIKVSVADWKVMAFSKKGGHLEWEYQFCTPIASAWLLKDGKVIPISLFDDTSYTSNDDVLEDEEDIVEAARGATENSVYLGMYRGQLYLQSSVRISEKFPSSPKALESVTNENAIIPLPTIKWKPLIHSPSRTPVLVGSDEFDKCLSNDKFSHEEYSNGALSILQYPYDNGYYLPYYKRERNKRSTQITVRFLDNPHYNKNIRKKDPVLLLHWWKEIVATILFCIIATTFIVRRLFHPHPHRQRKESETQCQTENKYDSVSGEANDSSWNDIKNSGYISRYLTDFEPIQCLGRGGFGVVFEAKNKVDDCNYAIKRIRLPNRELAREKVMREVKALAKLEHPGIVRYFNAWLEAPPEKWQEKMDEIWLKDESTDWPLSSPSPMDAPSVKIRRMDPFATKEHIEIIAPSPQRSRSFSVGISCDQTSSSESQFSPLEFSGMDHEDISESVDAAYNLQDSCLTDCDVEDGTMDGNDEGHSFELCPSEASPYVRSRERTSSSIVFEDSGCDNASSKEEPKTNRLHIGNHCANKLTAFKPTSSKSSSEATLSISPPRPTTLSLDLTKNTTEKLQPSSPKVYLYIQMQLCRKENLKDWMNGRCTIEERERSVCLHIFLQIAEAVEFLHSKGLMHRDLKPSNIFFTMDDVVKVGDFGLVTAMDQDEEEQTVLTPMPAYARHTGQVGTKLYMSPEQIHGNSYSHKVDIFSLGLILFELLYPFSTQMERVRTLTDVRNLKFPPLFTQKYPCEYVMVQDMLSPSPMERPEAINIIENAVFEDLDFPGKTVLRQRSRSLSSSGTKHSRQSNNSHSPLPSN

[15] = molecular target: Serine/threonine-protein kinase MARK1 (Homo sapiens) (UniProt Q9P0L2); assay: Inhibition of MARK1 (unknown origin) at 0.5 uM relative to control
[16] = species: Homo sapiens; assay: Inhibition of LYNA (unknown origin) at 0.5 uM relative to control
[17] = molecular target: Tyrosine-protein kinase Lyn (Homo sapiens) (UniProt P07948); assay: Inhibition of LYNB (unknown origin) at 0.5 uM relative to control
[18] = molecular target: Fibroblast growth factor receptor 2 (Homo sapiens) (UniProt P21802); assay: Inhibition of FGFR2 (unknown origin) at 0.5 uM relative to control

Non-receptor tyrosine-protein kinase TNK1 (Homo sapiens), sequence (Q13470 whole entry): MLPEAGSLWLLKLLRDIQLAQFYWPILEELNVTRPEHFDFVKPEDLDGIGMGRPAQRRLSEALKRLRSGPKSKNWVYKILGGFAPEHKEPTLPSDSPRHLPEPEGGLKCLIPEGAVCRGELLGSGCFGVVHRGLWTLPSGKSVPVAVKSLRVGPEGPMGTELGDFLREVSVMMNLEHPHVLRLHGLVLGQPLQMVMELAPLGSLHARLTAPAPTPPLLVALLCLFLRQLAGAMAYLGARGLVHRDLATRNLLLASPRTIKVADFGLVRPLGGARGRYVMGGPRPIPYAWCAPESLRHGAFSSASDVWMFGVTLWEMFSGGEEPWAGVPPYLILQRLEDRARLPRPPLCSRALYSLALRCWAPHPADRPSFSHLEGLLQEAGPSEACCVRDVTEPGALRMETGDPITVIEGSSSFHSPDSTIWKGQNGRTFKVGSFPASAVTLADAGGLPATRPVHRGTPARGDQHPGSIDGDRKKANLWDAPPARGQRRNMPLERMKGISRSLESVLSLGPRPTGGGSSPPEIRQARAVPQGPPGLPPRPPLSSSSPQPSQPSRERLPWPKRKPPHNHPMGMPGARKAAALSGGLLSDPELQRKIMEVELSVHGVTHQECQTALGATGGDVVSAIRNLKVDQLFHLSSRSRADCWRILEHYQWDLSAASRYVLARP

SMILES: CSc1nc(C(=O)Nc2ccc(Oc3cc4cnn(C)c4cc3Br)cc2)c(-c2ccc(F)cc2)o1
inhibition [1]: 23% | inhibition [2]: 25% | inhibition [3]: 21% | inhibition [4]: 16% | inhibition [5]: 14% | inhibition [6]: 28%

SMILES: CNC(=O)c1cc(Oc2ccc(NC(=O)c3nc(SC)oc3-c3ccc(F)cc3)cc2F)ccn1
inhibition [8]: 40%

SMILES: CNC(=O)c1cc(Oc2ccc(NC(=O)c3nc(SC)n(CCN(C)C)c3-c3ccc(F)cc3)cc2)ccn1
inhibition [12]: 44% | inhibition [13]: 34% | inhibition [14]: 64% | inhibition [15]: 44%

SMILES: CNC(=O)c1cc(Oc2ccc(NC(=O)c3nc(S(C)(=O)=O)sc3-c3ccc(F)cc3)cc2)ccn1
inhibition [18]: 11%

Other lines, results leading:

inhibition [7]: 54%
SMILES: CNC(=O)c1cc(Oc2ccc(NC(=O)c3n[nH]nc3-c3ccc(F)cc3)cc2)ccn1

inhibition [9]: 44%
SMILES: CNC(=O)c1cc(Oc2ccc(NC(=O)c3nc(NC)sc3-c3ccc(F)cc3)cc2)ccn1

inhibition [10]: 23% | inhibition [11]: 25%
SMILES: CNC(=O)c1cc(Oc2ccc(NC(=O)c3nc(C(F)(F)F)sc3-c3ccc(F)cc3)cc2)ccn1

inhibition [16]: 84% | inhibition [17]: 93%
SMILES: CNC(=O)c1cc(Oc2ccc(NC(=O)c3nc(SC)[nH]c3-c3ccc(F)cc3)cc2)ccn1
